The source made the active and inactive calls. The rule behind the calls is not given here.
Key:
[1] = target: NACHT, LRR and PYD domains-containing protein 3 (Mus musculus, UniProt Q8R4B8); experiment: Inhibition of NLRP3 in mouse J774.A1 cells assessed as reduction IL-1beta release by ELISA; format: cell-based
J774.A1 = experiment: Cytotoxicity against mouse J774.A1 cells at 0.4 to 6.4 uM incubated for 24 hrs by CCK-8 assay; format: toxicity, cell-based; details: j774.a1, 24 h, dose 0.4-6.4 µM
[2] = target: T1, Apoptosis-associated speck-like protein containing a CARD (Mus musculus) (UniProt Q9EPB4); experiment: Inhibition of LPS/nigericin-induced ASC oligomerization in mouse J774.A1 cells at 0.8 to 3.2 uM by immunoblot analysis; format: cell-based; details: dose 0.8-3.2 µM
T1 sequence (whole entry): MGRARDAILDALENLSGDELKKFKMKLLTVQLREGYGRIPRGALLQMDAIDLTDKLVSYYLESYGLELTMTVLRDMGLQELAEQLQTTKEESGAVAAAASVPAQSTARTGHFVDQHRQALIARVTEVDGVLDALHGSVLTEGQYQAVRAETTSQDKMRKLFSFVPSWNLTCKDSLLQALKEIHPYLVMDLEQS

[3] = target: NLRP3-NEK7 (Mus musculus) (UniProt Q8R4B8+Q9ES74); experiment: Inhibition of NLRP3/NEK7 protein-protein interaction in LPS/nigericin-induced mouse J774.A1 cells incubated for 6 hrs by coimmunoprecipitation analysis; format: cell-based
[4] = target: NACHT, LRR and PYD domains-containing protein 3 (Mus musculus) (UniProt Q8R4B8); experiment: Inhibition of NLRP3 inflammasome activation in LPS/nigericin-primed mouse BMDM cells assessed as inhibition of ASC speck formation incubated for 1 hr by DAPI staining based immunofluorescence analysis; format: cell-based
[5] = target: Nlrp3/Pycard (Mus musculus) (UniProt Q8R4B8+Q9EPB4); experiment: Inhibition of NLRP3/ASC protein-protein interaction in LPS/nigericin-induced mouse J774.A1 cells at 3 uM by coimmunoprecipitation analysis; format: cell-based
[6] = target: NACHT, LRR and PYD domains-containing protein 3 (Mus musculus) (UniProt Q8R4B8); experiment: Inhibition of LPS/nigericin-induced NLRP3 oligomerization in mouse J774.A1 cells at 3.2 uM by SDS-PAGE analysis; format: cell-based

Chain of NACHT, LRR and PYD domains-containing protein 3 (Q8R4B8 whole entry, the tested form may be a part): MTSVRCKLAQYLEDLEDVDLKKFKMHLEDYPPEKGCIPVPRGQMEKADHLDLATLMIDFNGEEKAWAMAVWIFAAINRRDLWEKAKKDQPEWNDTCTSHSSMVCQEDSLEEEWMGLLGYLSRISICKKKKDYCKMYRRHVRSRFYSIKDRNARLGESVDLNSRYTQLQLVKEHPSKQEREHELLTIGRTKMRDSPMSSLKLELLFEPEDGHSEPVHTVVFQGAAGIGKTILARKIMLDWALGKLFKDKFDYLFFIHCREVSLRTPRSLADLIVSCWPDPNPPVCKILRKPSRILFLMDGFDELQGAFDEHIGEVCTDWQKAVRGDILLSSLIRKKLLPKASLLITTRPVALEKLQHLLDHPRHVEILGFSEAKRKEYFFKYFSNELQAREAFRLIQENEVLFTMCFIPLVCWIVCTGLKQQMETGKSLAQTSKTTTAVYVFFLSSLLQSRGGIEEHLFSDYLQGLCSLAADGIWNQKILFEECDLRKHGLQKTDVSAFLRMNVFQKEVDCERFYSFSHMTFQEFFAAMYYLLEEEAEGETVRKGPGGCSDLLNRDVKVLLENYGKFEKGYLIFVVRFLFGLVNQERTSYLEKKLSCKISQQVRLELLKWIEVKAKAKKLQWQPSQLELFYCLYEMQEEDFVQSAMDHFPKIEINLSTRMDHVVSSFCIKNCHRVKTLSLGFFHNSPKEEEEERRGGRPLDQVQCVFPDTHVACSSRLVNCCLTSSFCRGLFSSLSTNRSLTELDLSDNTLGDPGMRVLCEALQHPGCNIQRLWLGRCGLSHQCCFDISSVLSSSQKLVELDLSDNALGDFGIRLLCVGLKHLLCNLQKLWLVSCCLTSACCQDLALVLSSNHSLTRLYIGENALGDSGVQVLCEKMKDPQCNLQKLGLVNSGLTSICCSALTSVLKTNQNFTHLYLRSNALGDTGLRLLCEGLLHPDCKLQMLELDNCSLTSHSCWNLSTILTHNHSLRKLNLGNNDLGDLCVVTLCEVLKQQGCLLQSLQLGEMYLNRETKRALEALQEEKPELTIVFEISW
Chain of NACHT, LRR and PYD domains-containing protein 3 (Mus musculus) (Q8R4B8 whole entry, the tested form may be a part): as above
Chain of NLRP3-NEK7 (Mus musculus) (Q8R4B8 whole entry, looked up, the tested form may be a part): as the sequence (Q8R4B8 whole entry, the tested form may be a part) above
Chain of NLRP3-NEK7 (Mus musculus) (Q9ES74 whole entry, looked up, the tested form may be a part): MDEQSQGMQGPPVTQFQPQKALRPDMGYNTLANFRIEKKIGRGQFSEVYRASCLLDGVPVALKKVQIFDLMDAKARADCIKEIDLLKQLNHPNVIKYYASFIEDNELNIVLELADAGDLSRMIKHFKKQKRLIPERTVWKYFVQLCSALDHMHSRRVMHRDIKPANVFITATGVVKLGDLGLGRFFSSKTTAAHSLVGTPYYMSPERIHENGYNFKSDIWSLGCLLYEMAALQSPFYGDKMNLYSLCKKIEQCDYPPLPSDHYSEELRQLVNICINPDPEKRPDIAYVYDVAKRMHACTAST
Chain of Nlrp3/Pycard (Mus musculus) (Q8R4B8 whole entry, looked up, one chain of several, the tested form may be a part): as the sequence (Q8R4B8 whole entry, the tested form may be a part) above

Row | Structure (SMILES) | IC50 [1] | further results
1 | O=C(N[C@H]1CCc2ccccc21)c1cc(-c2ccccc2)nc2ccccc12 | 4510 nM | 
2 | Cc1ccccc1NC(=O)c1cc(-c2ccccc2)nc2ccccc12 | 13800 nM | 
3 | CC[C@H](NC(=O)c1ccnc2ccccc12)c1ccccc1 | 126000 nM | 
4 | CCN(CC)CCCC(C)NC(=O)c1cc(-c2ccccc2)nc2ccccc12 (stereo not given) | 11400 nM | 
5 | CC[C@H](NC(=O)c1cc(Cl)nc2ccccc12)c1ccccc1 | 84700 nM | 
6 | CC[C@H](NC(=O)c1cc(C)nc2ccccc12)c1ccccc1 | 85000 nM | 
7 | CCN(CC)CCCC(C)Nc1ccnc2cc(Cl)ccc12 (stereo not given) [CHLOROQUINE] | 87900 nM | 
8 | Cc1ccc(O)cc1NC(=O)c1cc(-c2ccccc2)nc2ccccc12 | 7070 nM | 

Now those with a lower IC50 [1], led by results:

Row | IC50 [1] | Structure (SMILES) | further results
9 | 1200 nM | CC[C@H](NC(=O)c1c(C)c(-c2cccc(F)c2)nc2cc(OC)ccc12)c1ccccc1 | 
10 | 590 nM | CC[C@H](NC(=O)c1c(C)c(-c2cccc(F)c2)nc2ccccc12)c1ccccc1 | Activity (J774.A1): Non-toxic; inhibition [2]: Active; inhibition [3]: inactive; inhibition [4]: Active; inhibition [5]: Active; inhibition [6]: Active
11 | 810 nM | CC[C@H](NC(=O)c1c(C)c(-c2cccc(F)c2)nc2ccc(Cl)cc12)c1ccccc1 | 
12 | 940 nM | CC[C@H](NC(=O)c1c(C)c(-c2cccc(F)c2)nc2ccc([N+](=O)[O-])cc12)c1ccccc1 | 
13 | 710 nM | CC[C@H](NC(=O)c1c(C)c(-c2cccc(F)c2)nc2c(Cl)cccc12)c1ccccc1 | 
14 | 920 nM | CC[C@H](NC(=O)c1c(C)c(-c2cccc(F)c2)nc2cc(Cl)ccc12)c1ccccc1 | 
15 | 890 nM | CC[C@H](NC(=O)c1c(C)c(-c2cccc(Cl)c2)nc2ccccc12)c1ccccc1 | 
16 | 2070 nM | O=C(Nc1ccccc1)c1cc(-c2ccccc2)nc2ccccc12 | 
17 | 1300 nM | CC[C@H](NC(=O)c1cc(-c2ccccc2)nc2ccccc12)c1ccccc1 [AZD-7624] | 
18 | 4310 nM | Cc1ccccc1CNC(=O)c1cc(-c2ccccc2)nc2ccccc12 | 
19 | 720 nM | CC[C@H](NC(=O)c1c(C)c(-c2cccc(F)c2)nc2c(NC(C)=O)cccc12)c1ccccc1 | 
